Converted amounts (≈) assume the structure as drawn.
Experiments:
[1] = Solubility study, Crystal16 apparatus, pH 6.8 buffer, nephelometric detection; format: physicochemical; details: pH 6.8 buffer solution, aqueous buffer, thermodynamic from solid, 25° C., reference under the study conditions, read-out: Solubility of agomelatine (reference)
Experimental: Various concentrations were tested and the presence of insoluble particles was monitored by nephelometric detection.

[2] = Glass transition temperature by scanning calorimetric analysis (DSC); format: physicochemical
Experimental: The Applicant has now discovered that agomelatine has an amorphous state whose glass transition temperature has been measured at −6° C. by scanning calorimetric analysis, or DSC (“Differential Scanning calorimetry”). Above that temperature, the active ingredient undergoes a transition towards a crystalline form. Preserving agomelatine in the amorphous state at ambient temperature is therefore not possible.

[3] = 25° C.; cited from earlier work

SMILES: COc1ccc2cccc(CCNC(C)=O)c2c1 [agomelatine, N-[2-(7-methoxy-1-naphthyl)ethyl]acetamide]
- solubility at 4 h [1]: 0.14 mg/mL (≈ 575 µM)
- Glass transition temperature of the amorphous state [2]: −6 °C
- Solubility of agomelatine in water [3]: less than 0.15 mg/ml

Reference: US20150238614A1, “STABILISED AMORPHOUS FORM OF AGOMELATINE, A PROCESS FOR ITS PREPARATION AND PHARMACEUTICAL COMPOSITIONS CONTAINING IT” (LES LABORATOIRES SERVIER, priority 2012, published 2015)
